Laboratory results published in patent US10561638B2, “Methods for treating dependence” (Biotie Therapies, Inc., priority 2007, dated 2020).

How the values were obtained:
[1] = Plasma and tissue compound levels in dogs; format: in vivo, beagle dogs
Procedure: Male Beagle dogs (Marshall farms, North Rose, N.Y.) weighing between 9-16 kg were used in the study. The animals were allowed water ad libitum and given food once daily at ˜10.00 AM. Animals were randomly assigned to one of the following treatment groups (n=8/group): placebo (empty capsule), or nepicastat at 2 mg/kg b.i.d (4 mg/kg/day). Each animal received 2 doses daily, morning and afternoon (8-10 hours apart). Daily blood samples (10 ml) were drawn 6 h after the AM dose for measurement of plasma levels of nepicastat and catecholamines. The blood was collected in tubes containing heparin and glutathione and centrifuged at −4° C. within 1 h of collection. The plasma was separated and divided into two samples, one for the measurement of plasma catecholamines and the other for analysis of nepicastat.
Plasma norepinephrine (NE), dopamine (DA) and epinephrine (EPI) were analyzed by HPLC using electrochemical detection. Plasma concentration of nepicastat was determined by HPLC using electrochemical detection.
Thirty-two male beagle dogs, weighing 10-12 kg, were randomly assigned to one of the following 4 treatment groups (n=8 per group): nepicastat at 0 mg/kg/day (placebo), 10 mg/kg/day (5 mg/kg b.i.d.), 30 mg/kg (15 mg/kg b.i.d.), or 60 mg/kg/day (30 mg/kg b.i.d.). Dog numbers 1-16 were assigned as dose group A and dog numbers 17-32 as dose group B. The terminal surgery for tissue harvest was performed over 2 days with 16 animals studied per day. Two or 3 days before the first compound administration each dog was weighed and skin regions overlying both cephalic, saphenous and jugular veins were shaved. Dosing consisted of oral administration of one capsule with the second given 8-10 hr later. Dogs were dosed as scheduled on days 1-3. On day 4, prior to the AM dose, 3 ml of blood were obtained from a jugular vein for determination of baseline plasma compound levels. The dog was then administered the AM dose, and at 1, 2, 4 and 8 hr following the dose additional 3 ml blood samples were collected for determination of plasma compound levels. […]

mice = assay: Clinical observations and behavioral tests in mice, single oral dose; format: in vivo
Procedure: A single oral dose of vehicle or nepicastat formulation was administered by gavage to each mouse using a rodent intubator. The oral route was selected because it is a proposed clinical route of administration. Dose volumes were calculated on the basis of individual body weights recorded before dosing (body weight data are not tabulated in this report). Food and water were withheld from the mice 2.5 to 3.5 hours before dosing, instead of 1.5 hours as specified in the protocol.
Clinical observations were recorded before dosing. Beginning 60 minutes after dosing, mice in each treatment group were evaluated in groups of up to 3 over an interval of approximately 10 minutes each for clinical observations and protocol-specified behavioral tests. One mouse in the 30-mg/kg group and 1 mouse in the 100-mg/kg group died after dosing and they were removed from the study. Surviving mice were euthanatized and removed from the study at the end of the observation/testing period.
[…] Clinical observations and behavioral tests were initiated 60 minutes after administration of the test formulation. At the end of the observation period, all surviving mice were euthanatized and removed from the study.

thyroid uptake of 123I = assay: Thyroid uptake of 123I in humans; format: in vivo, human
HMG-CoA reductase = HMG-CoA reductase (Homo sapiens, UniProt P04035); assay: Enzyme selectivity assay; format: biochemical
HMG-CoA reductase, sequence (P04035 whole entry, species assumed): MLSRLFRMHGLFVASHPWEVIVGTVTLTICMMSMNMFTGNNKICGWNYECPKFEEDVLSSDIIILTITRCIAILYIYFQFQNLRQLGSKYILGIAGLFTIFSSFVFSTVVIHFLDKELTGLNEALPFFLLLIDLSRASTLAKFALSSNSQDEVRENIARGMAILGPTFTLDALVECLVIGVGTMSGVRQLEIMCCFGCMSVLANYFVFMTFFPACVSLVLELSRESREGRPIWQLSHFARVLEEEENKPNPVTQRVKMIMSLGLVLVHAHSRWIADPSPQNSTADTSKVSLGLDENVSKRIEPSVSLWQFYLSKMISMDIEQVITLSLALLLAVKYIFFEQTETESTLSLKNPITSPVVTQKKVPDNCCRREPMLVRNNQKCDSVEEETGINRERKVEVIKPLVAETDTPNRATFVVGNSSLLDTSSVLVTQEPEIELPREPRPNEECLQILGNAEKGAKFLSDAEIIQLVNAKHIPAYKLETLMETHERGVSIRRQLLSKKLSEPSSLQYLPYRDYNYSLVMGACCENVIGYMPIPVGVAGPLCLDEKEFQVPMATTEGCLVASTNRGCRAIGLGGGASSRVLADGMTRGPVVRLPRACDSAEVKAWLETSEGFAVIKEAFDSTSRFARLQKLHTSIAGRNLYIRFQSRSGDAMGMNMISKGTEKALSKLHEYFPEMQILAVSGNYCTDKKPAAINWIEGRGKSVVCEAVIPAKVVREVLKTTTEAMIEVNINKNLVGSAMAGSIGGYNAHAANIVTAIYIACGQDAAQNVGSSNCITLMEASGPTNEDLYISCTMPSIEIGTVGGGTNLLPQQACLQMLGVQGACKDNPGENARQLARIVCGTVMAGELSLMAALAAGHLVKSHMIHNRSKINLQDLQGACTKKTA
Procedure: (§1) The activity of nepicastat at twelve selected enzymes and receptors was determined using established assays. Binding data were analyzed by iterative curve-fitting to a four parameter logistic equation. Ki values were calculated from IC50 values using the Cheng-Prusoff equation. Enzyme inhibitory activity was expressed as IC50 (concentration required to produce 50% inhibition of enzyme activity).
(§2) The activity of nepicastat at eleven different enzymes was determined using established assays. The affinity of nepicastat for thirteen selected receptors was determined by radioligand binding assays using standard filtration techniques and membrane preparations. Binding data were analyzed by iterative curve fitting to a four parameter logistic equation. Ki values were calculated using the Cheng-Prusoff equation.

protein kinase C = assay: Enzyme selectivity assay; format: biochemical
Procedure: as §1, §2

[2] = target: Ca2+/calmodulin protein kinase II; assay: Enzyme selectivity assay; format: biochemical
Procedure: as §1, §2

neutral endopeptidase = neutral endopeptidase (Homo sapiens, UniProt P08473); assay: Enzyme selectivity assay; format: biochemical
neutral endopeptidase, sequence (P08473 whole entry, species assumed): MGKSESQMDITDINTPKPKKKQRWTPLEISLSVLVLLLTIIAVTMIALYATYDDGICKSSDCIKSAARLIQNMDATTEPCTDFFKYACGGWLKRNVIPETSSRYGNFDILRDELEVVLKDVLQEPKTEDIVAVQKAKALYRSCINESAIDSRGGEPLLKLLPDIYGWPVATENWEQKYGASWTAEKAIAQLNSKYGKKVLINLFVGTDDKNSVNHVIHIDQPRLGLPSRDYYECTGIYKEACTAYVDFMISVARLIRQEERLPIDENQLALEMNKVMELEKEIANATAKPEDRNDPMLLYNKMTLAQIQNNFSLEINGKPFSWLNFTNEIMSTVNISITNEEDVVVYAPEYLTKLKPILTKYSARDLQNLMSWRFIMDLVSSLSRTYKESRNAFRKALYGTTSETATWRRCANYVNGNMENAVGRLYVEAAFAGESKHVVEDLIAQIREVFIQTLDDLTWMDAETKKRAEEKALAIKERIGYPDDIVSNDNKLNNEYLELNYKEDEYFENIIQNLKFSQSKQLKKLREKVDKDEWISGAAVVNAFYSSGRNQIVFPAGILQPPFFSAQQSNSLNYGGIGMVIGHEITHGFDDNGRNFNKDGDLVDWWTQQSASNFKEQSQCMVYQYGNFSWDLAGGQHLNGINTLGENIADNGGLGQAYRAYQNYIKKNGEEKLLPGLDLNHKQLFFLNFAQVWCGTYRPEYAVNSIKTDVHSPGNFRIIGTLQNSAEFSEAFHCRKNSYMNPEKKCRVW
Procedure: as §1, §2

[3] = target: acyl CoA-cholesterol acyl transferase; assay: Enzyme selectivity assay; format: biochemical
Procedure: as §1, §2

tyrosine hydroxylase = tyrosine hydroxylase (Homo sapiens, UniProt P07101); assay: Enzyme selectivity assay; format: biochemical
tyrosine hydroxylase, sequence (P07101 whole entry): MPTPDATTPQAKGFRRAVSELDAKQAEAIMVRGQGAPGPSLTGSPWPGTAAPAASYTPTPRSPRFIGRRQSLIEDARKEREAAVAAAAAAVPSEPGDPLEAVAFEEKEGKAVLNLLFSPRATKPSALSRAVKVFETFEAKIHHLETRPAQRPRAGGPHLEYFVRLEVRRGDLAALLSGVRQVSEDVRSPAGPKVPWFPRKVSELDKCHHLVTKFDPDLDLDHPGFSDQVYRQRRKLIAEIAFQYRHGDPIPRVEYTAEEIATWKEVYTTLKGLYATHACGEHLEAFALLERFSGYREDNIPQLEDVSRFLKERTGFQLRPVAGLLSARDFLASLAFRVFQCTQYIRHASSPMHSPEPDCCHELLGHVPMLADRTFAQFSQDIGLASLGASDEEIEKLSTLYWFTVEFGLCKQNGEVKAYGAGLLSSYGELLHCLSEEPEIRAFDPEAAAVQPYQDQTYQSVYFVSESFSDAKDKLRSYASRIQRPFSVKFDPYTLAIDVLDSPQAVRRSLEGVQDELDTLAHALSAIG
Procedure: as §1, §2

phosphodiesterase III = assay: Enzyme selectivity assay; format: biochemical
Procedure: as §1, §2

phospholipase A2 = assay: Enzyme selectivity assay; format: biochemical
Procedure: as §1, §2

cyclooxygenase-I = cyclooxygenase-I (Homo sapiens, UniProt P23219); assay: Enzyme selectivity assay; format: biochemical
cyclooxygenase-I, sequence (P23219 24-599): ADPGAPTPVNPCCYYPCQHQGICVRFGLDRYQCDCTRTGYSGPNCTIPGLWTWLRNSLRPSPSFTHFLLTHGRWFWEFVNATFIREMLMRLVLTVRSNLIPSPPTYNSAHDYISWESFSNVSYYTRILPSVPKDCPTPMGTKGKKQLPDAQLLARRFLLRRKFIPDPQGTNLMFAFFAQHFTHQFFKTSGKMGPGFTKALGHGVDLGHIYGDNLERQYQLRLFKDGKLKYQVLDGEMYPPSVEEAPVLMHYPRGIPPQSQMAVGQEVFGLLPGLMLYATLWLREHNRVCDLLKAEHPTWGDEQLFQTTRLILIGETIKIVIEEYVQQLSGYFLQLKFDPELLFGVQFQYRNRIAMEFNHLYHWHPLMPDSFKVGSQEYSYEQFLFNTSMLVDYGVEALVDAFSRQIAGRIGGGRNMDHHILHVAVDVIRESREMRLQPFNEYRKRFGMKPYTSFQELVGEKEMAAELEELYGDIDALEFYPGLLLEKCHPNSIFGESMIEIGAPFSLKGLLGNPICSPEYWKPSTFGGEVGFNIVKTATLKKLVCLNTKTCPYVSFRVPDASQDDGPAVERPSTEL
Procedure: as §1, §2

nitric oxide synthase = assay: Enzyme selectivity assay; format: biochemical
Procedure: as §1, §2

[4] = 30, 100, 300 mg/kg single oral dose

For Cl.NCc1c[nH]c(=S)n1[C@H]1CCc2c(F)cc(F)cc2C1 [nepicastat, (S)-5-Aminomethyl-1-(5,7-difluoro-1,2,3,4-tetrahydronaphth-2-yl)-2,3-dihydro-2-thioxo-1H-imidazole hydrochloride], the “time of peak plasma levels of the drug” value ([1]; 2 mg/kg bid, sampled 6 h after AM dose) was 2 days post-dose, the “dose proportionality of nepicastat concentration in plasma and tissue” value ([1]; 10, 30, 60 mg/kg/day, Day 4 and Day 5) was “dose-proportional” and the “levels of nepicastat in tissues vs plasma” value ([1]; Day 5, all tissues examined) was “higher than those in plasma”. The “clinical or gross behavior changes” value (mice; [4]) was “No treatment-related clinical or gross behavior changes”, the “rectal body temperature vs vehicle-control” value (mice; [4]) was “Lower body temperatures” and the gross motor behavior (mice; acute 1.0-30 mg/kg p.o.) was “no significant effects on gross motor behavior”. The deaths after dosing (mice; one mouse each at 30 and 100 mg/kg) was “the deaths were considered incidental”, the “thyroid uptake of 123I vs placebo” value (thyroid uptake of 123I; 5, 40 and 100 mg) was “no differences from placebo” and the “reduction of thyroid uptake of 123I vs placebo” value (thyroid uptake of 123I; single 200 mg dose) was “significantly greater than placebo”. The IC50 (HMG-CoA reductase) was greater than 10 µM, the IC50 (protein kinase C) was greater than 10 µM and the IC50 [2] was greater than 10 µM. The IC50 (neutral endopeptidase) was greater than 10 µM, the IC50 [3] was greater than 10 µM and the IC50 (tyrosine hydroxylase) was greater than 10 µM. The IC50 (phosphodiesterase III) was greater than 10 µM, the IC50 (phospholipase A2) was greater than 10 µM and the IC50 (cyclooxygenase-I) was greater than 10 µM. The IC50 (nitric oxide synthase) was greater than 10 µM.
